Experimental data from ChEMBL document CHEMBL5465560, “Selectivity Literature for EUbOPEN Chemogenomic Library” (2024).

Columns and labels:
[1] = target: Dual specificity tyrosine-phosphorylation-regulated kinase 1A (Homo sapiens, UniProt Q13627); experiment: Selectivity interaction (KinomeScan (DiscoverX)) EUB0001049a DYRK1A; conditions: at 1 µM
[2] = target: Serine/threonine-protein kinase B-raf (Homo sapiens) (UniProt P15056); experiment: (§1) Selectivity interaction (KinomeScan (DiscoverX)) EUB0001079a BRAF; conditions: at 1 µM
Chain of Serine/threonine-protein kinase B-raf (Homo sapiens) (P15056 whole entry): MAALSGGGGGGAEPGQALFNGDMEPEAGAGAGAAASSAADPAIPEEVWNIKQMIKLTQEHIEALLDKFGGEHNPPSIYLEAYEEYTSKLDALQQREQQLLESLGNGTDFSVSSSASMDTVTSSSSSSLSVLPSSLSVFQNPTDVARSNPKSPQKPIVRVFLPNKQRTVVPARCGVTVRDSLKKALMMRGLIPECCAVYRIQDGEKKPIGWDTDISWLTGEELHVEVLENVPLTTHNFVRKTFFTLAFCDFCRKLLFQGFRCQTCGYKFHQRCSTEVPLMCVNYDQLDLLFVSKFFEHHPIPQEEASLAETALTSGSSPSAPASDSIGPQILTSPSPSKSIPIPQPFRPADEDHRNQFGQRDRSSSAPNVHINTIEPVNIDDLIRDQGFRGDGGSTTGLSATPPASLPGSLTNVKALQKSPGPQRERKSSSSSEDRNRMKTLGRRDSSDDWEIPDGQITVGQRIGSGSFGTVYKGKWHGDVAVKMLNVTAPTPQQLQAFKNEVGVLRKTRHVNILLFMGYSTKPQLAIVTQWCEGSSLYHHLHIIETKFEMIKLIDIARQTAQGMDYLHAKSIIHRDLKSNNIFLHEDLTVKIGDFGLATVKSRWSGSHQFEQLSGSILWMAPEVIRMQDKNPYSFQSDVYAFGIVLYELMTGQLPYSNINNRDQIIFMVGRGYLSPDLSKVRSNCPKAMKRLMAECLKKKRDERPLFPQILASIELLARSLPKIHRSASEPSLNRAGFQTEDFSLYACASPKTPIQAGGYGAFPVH

[3] = test system: Serine/threonine-protein kinase B-raf (Homo sapiens), P15056 [V600E]; experiment: as §1; conditions: at 1 µM
Chain of Serine/threonine-protein kinase B-raf (Homo sapiens), P15056 [V600E] (P15056 whole entry V600E): as the sequence (P15056 whole entry) above, with V600E counted along it

[4] = target: T1, Receptor-interacting serine/threonine-protein kinase 4 (Homo sapiens) (UniProt P57078); experiment: Selectivity interaction (KinomeScan (DiscoverX)) EUB0000595a RIPK4; conditions: at 10 µM
T1 sequence (whole entry): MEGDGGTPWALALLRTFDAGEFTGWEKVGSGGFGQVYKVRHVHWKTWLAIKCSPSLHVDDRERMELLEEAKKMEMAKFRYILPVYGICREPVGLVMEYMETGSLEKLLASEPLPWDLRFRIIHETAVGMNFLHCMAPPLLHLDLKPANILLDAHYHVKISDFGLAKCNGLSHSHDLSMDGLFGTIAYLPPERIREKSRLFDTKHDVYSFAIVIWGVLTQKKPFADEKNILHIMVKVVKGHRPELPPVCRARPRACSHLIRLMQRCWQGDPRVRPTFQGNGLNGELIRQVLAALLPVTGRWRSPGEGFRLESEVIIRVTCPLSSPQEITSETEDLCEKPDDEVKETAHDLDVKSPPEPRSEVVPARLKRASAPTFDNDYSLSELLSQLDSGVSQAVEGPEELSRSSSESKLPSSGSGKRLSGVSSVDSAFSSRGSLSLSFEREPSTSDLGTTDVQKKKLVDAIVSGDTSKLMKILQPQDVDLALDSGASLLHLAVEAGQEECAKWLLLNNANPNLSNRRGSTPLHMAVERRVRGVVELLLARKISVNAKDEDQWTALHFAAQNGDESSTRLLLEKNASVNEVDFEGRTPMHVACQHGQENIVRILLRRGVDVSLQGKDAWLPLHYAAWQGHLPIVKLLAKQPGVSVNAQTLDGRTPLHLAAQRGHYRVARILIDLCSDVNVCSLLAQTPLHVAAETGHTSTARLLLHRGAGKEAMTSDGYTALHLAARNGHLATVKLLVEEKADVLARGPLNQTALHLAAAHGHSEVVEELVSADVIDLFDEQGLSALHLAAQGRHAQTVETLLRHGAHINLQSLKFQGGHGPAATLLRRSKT

[5] = target: T2, Serine/threonine-protein kinase BRSK1 (Homo sapiens) (UniProt Q8TDC3); experiment: Selectivity interaction (Kinase screening (Nanosyn)) EUB0000604a BRSK1
T2 sequence (whole entry): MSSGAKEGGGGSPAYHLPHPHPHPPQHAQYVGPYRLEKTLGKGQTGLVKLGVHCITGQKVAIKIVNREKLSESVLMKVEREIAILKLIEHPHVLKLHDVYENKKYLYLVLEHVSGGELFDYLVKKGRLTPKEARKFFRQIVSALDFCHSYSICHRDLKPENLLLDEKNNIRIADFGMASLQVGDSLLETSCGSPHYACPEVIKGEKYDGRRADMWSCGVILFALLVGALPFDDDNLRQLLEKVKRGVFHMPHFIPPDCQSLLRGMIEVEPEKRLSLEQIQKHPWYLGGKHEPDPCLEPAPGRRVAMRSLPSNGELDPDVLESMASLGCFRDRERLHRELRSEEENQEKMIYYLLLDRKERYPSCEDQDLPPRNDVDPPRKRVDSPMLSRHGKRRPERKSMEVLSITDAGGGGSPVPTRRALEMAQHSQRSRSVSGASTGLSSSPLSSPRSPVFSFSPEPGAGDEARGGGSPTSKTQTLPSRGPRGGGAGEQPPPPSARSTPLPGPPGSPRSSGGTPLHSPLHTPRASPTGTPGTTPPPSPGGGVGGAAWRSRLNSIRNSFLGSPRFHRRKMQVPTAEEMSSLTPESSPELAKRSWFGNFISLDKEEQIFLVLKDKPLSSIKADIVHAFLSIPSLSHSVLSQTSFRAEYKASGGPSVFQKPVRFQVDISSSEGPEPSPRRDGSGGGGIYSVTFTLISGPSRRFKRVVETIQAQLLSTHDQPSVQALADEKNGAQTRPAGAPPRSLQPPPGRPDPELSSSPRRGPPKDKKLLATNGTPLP

[6] = target: RAF proto-oncogene serine/threonine-protein kinase (Homo sapiens) (UniProt P04049); experiment: Selectivity interaction (KinomeScan (DiscoverX)) EUB0000618a RAF1; conditions: at 10 µM
Chain of RAF proto-oncogene serine/threonine-protein kinase (Homo sapiens) (P04049 whole entry): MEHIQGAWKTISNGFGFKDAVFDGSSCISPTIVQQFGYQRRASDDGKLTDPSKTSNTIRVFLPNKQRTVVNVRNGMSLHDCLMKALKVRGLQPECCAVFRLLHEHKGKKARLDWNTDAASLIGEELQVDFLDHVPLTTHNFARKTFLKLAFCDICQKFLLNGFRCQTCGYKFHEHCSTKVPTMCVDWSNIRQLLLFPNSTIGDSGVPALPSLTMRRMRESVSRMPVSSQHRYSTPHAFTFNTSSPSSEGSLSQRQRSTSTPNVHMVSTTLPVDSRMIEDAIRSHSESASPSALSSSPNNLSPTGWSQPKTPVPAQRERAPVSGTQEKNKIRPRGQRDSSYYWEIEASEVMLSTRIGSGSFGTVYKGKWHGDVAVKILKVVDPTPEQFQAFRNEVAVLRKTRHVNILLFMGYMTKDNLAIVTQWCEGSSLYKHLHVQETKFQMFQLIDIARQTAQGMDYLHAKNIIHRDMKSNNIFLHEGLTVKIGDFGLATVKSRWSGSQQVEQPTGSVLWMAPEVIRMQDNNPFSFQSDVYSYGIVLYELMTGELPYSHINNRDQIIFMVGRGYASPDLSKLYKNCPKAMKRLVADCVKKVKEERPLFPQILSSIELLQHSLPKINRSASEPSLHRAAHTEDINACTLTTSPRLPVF

[7] = target: T3, 3-phosphoinositide-dependent protein kinase 1 (Homo sapiens) (UniProt O15530); conditions: at 10 µM
T3 sequence (whole entry): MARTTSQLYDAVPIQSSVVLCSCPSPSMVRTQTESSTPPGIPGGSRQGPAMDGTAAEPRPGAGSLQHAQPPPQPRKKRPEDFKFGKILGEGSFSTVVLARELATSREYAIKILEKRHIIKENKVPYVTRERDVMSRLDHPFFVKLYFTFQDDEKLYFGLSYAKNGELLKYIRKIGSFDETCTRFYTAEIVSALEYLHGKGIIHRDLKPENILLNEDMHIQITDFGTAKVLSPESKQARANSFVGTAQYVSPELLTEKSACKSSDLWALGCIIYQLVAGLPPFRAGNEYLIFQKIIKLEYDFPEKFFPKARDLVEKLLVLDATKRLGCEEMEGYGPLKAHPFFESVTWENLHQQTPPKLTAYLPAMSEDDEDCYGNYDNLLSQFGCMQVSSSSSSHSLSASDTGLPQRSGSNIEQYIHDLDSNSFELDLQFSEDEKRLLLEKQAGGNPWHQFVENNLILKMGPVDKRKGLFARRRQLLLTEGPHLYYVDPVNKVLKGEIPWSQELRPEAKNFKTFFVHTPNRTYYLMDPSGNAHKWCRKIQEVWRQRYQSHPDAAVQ

[8] = target: Tyrosine-protein kinase Lyn (Homo sapiens, UniProt P07948); conditions: at 10 µM
Chain of Tyrosine-protein kinase Lyn (P07948 2-512 limits assumed): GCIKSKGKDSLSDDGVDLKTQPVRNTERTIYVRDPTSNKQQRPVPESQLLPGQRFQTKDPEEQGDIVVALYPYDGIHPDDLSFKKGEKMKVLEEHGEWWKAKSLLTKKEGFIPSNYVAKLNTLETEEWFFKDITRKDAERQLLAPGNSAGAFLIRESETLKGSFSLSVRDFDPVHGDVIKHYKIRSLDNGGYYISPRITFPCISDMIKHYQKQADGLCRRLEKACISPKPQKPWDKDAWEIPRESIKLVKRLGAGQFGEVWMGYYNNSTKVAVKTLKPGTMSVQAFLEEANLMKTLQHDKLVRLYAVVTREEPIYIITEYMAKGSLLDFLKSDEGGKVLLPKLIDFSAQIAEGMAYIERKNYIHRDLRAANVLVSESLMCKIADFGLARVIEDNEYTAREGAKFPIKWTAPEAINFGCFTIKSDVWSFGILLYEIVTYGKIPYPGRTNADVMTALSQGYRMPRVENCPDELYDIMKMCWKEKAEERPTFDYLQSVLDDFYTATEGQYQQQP

[9] = target: Serine/threonine-protein kinase B-raf (Homo sapiens) (UniProt P15056); experiment: (§2) Selectivity interaction (KinomeScan (DiscoverX)) EUB0001619a BRAF; conditions: at 1 µM
[10] = test system: Serine/threonine-protein kinase B-raf (Homo sapiens), P15056 [V600E]; experiment: as §2; conditions: at 1 µM
[11] = target: Mitogen-activated protein kinase 7 (Homo sapiens) (UniProt Q13164); experiment: Selectivity interaction (KinomeScan (DiscoverX)) EUB0000655a MAPK7; conditions: at 10 µM
Chain of Mitogen-activated protein kinase 7 (Homo sapiens) (Q13164 2-816 limits assumed): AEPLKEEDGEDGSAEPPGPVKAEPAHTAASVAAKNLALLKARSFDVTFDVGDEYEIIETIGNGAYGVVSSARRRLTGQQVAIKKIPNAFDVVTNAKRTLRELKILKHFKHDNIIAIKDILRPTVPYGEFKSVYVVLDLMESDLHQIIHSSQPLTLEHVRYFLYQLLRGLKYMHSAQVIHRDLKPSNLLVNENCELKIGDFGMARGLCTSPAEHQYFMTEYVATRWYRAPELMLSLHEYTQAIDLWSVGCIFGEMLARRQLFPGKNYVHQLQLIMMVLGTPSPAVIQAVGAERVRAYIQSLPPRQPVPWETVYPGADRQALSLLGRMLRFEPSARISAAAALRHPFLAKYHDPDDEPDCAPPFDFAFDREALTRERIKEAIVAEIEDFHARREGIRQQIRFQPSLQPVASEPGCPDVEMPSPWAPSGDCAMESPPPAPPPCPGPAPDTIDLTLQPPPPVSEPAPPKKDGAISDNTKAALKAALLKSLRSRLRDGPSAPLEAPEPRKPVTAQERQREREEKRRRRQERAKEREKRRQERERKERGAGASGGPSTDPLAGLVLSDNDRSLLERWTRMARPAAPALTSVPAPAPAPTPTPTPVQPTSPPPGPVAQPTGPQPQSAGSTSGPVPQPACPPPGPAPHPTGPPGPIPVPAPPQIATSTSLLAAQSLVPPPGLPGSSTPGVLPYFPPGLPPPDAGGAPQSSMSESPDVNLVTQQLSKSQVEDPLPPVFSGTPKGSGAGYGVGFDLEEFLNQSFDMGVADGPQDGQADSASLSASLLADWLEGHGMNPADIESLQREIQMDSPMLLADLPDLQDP

[12] = test system: Epidermal growth factor receptor (Homo sapiens), P00533 [UNDEFINED MUTATION]; experiment: Selectivity interaction (ProQinase) EUB0000171b EGFR; conditions: at 5 µM
Chain of Epidermal growth factor receptor (Homo sapiens), P00533 [UNDEFINED MUTATION] (P00533 whole entry, looked up, change not shown): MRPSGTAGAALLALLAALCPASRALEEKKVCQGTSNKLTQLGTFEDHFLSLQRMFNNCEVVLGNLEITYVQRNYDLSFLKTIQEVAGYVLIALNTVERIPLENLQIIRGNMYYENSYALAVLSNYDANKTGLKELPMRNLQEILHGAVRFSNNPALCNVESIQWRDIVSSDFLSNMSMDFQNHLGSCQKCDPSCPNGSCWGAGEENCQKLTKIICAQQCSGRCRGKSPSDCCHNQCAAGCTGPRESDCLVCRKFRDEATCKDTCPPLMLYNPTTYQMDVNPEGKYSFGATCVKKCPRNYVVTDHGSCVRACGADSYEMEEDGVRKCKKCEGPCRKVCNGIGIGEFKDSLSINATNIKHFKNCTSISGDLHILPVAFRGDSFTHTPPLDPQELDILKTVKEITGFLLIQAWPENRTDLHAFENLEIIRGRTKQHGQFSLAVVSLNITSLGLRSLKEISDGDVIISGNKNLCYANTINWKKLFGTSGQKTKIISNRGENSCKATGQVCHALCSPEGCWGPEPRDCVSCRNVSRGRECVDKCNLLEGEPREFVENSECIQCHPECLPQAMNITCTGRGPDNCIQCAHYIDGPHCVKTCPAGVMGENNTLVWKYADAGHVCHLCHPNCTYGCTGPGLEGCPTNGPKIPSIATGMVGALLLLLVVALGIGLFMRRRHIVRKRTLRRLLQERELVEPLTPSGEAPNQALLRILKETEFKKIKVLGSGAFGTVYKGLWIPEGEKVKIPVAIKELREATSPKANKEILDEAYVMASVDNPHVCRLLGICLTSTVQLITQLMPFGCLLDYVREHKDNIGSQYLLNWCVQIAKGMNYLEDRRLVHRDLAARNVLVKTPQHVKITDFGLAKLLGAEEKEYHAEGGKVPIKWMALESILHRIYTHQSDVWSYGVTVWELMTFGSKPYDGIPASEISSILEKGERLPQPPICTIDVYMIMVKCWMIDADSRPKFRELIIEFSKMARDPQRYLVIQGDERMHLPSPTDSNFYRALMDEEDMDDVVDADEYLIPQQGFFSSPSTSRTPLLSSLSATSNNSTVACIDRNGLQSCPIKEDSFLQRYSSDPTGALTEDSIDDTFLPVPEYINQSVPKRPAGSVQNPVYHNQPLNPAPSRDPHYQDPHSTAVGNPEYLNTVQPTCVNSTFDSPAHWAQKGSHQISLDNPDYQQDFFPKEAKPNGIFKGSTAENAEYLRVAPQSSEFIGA

COc1cc(Nc2nc(C)cc(-c3cnn4nc(OC)ccc34)n2)cc(C(F)(F)F)c1
% of control [1]: 74%

Nc1cnc(N2CCc3cc(S(=O)(=O)Nc4c(F)cc(Cl)cc4F)cc(N4CCCC4=O)c32)nc1 [TP-020n]
% of control [2]: 98%
% of control [3]: 100%

COCC(=O)NC/C=C/c1ccc2ncnc(Nc3ccc(Oc4ccc(C)nc4)c(C)c3)c2c1 [CP-724714]
% of control [4]: 100%

Cc1cnc(Nc2ccc(F)cc2Cl)nc1-c1c[nH]c(C(=O)N[C@H](CO)c2cccc(Cl)c2)c1
% of inhibition [5]: 0%

O[C@H]1CC[C@H](Nc2ncc3nc(Nc4c(F)cc(F)cc4F)n([C@H]4CCOC4)c3n2)CC1
% of control [6]: 100%

Cc1cc([C@@H](C)Nc2ccccc2C(=O)O)c2nc(N3CCOCC3)cc(=O)n2c1 [AZD-6482]
% of control [7]: 100%
% of control [8]: 99%

N#Cc1cccc(-c2c[nH]c3ncnc(N4CCOCC4)c23)c1
% of control [9]: 80%
% of control [10]: 69%

CN(C)CCOc1ccc(-c2nc(-c3ccncc3)c(-c3ccc4c(c3)CC/C4=N\O)[nH]2)cc1
% of control [11]: 97%

C=CC(=O)Nc1cccc(C(=O)Nc2ccc(Nc3cc(-c4[nH]c(SC)nc4C)ccn3)cc2)c1
% of control [12]: 86%
